# Assay results published in US6737383B1, “Herbicidal oxadiazolidines” (priority 1999, dated 2004).
# Tests used:
# purple nutsedge = assay: Test B pre/postemergence purple nutsedge; assay type: in vivo, Cyperus rotundus
# Method in brief: (§1)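 Test chemicals in a non-phytotoxic solvent mixture with surfactant were sprayed preemergence onto planted seeds and postemergence onto plants 2 to 18 cm tall (1- to 4-leaf stage). After twelve to sixteen days in a greenhouse, injury was visually rated against untreated controls from 0 (no effect) to 10 (complete control).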
# cocklebur = assay: Test B pre/postemergence cocklebur; assay type: in vivo, Xanthium strumarium
# Method in brief: as §1
# rice = assay: Test B flood test rice; assay type: in vivo, Oryza sativa
# Method in brief: (§2)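 Flood test on plants grown to the 2-leaf stage; treated plants kept in greenhouse twelve to sixteen days, then visually rated against controls on a 0 (no effect) to 10 (complete control) scale.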
# sugar beet = assay: Test B pre/postemergence sugar beet; assay type: in vivo, Beta vulgaris
# Method in brief: as §1
# blackgrass = assay: Test B pre/postemergence blackgrass; assay type: in vivo, Alopecurus myosuroides
# Method in brief: as §1
# pigweed = assay: Test B pre/postemergence pigweed; assay type: in vivo, Amaranthus retroflexus
# Method in brief: as §1
# velvetleaf = assay: Test B pre/postemergence velvetleaf; assay type: in vivo, Abutilon theophrasti
# Method in brief: as §1
# duck salad = assay: Test B flood test duck salad; assay type: in vivo, Heteranthera limosa
# Method in brief: as §2
# morningglory = assay: Test B pre/postemergence morningglory; assay type: in vivo, Ipomoea hederacea
# Method in brief: as §1
# giant foxtail = assay: Test B pre/postemergence giant foxtail; assay type: in vivo, Setaria faberii
# Method in brief: as §1
# crabgrass = assay: Test B pre/postemergence crabgrass; assay type: in vivo, Digitaria sanguinalis
# Method in brief: as §1
# rape = assay: Test B pre/postemergence rape; assay type: in vivo, Brassica napus
# Method in brief: as §1
# corn = assay: Test B pre/postemergence corn; assay type: in vivo, Zea mays
# Method in brief: as §1
# wheat = assay: Test B pre/postemergence wheat; assay type: in vivo, Triticum aestivum
# Method in brief: as §1
# soybean = assay: Test B pre/postemergence soybean; assay type: in vivo, Glycine max
# Method in brief: as §1
# smallflower flatsedge = assay: Test B flood test smallflower flatsedge; assay type: in vivo, Cyperus difformis
# Method in brief: as §2
# [1] = Preemergence, Rate 31 g/ha, visual rating, scale 0 to 10 (0 no effect, 10 complete control)
# [2] = Preemergence, Rate 62 g/ha, scale of 0 to 10 where 0 is no effect and 10 is complete control
# [3] = Preemergence, Rate 125 g/ha, 0 is no effect, 10 is complete control
# [4] = Rate 31 g/ha, Postemergence, scale 0 to 10
# [5] = Rate 62 g/ha, Postemergence, scale of 0 to 10 where 0 is no effect and 10 is complete control
# [6] = Rate 125 g/ha, Postemergence, scale 0 to 10
# [7] = Preemergence, Rate 250 g/ha, scale 0 to 10, 0 is no effect, 10 is complete control
# [8] = Rate 31 g/ha, Pre-emergence section (flood test species), scale 0 to 10
# [9] = Rate 62 g/ha, headed Pre-emergence (flood test species), scale 0 to 10 (0 no effect, 10 complete control)
# [10] = Rate 125 g/ha, Pre-emergence, flood test species, scale 0 to 10 where 0 is no effect and 10 is complete control
# [11] = Rate 250 g/ha, Pre-emergence, flood-test species, scale 0 to 10, 0 is no effect, 10 is complete control
smiles,measurement,setting,value
Cc1ccccc1-n1c(=O)on(C(=O)N(c2ccc(F)cc2)C2CCC2)c1=O [Compound 200],Nutsedge plant response rating,purple nutsedge; [1],0
same,Nutsedge plant response rating,purple nutsedge; [2],0
same,Nutsedge plant response rating (0 to 10 scale),purple nutsedge; [3],0
same,Nutsedge plant response rating,purple nutsedge; [4],0
same,Nutsedge plant response rating,purple nutsedge; [5],0
same,Nutsedge plant response rating,purple nutsedge; [6],0
same,"Plant response rating (0 to 10; 0 is no effect, 10 is complete control), Nutsedge","purple nutsedge; Rate 250 g/ha, Postemergence",0
same,Cocklebur plant response rating,cocklebur; [1],0
same,Cocklebur plant response rating,cocklebur; [2],0
same,Cocklebur plant response rating (0 to 10 scale),cocklebur; [3],0
same,Cocklebur plant response rating,cocklebur; [7],0
same,Cocklebur plant response rating,cocklebur; [4],0
same,Cocklebur plant response rating,cocklebur; [5],0
same,Cocklebur plant response rating,cocklebur; [6],0
same,"Plant response rating (0 to 10; 0 is no effect, 10 is complete control), Cocklebur","cocklebur; Rate 250 g/ha, Postemergence",0
same,Rice plant response rating,rice; [8],0
same,Rice plant response rating,rice; [9],0
same,Rice plant response rating,rice; [10],0
same,Rice plant response rating,rice; [11],0
same,Sugarbeets plant response rating,sugar beet; [1],0
same,Sugarbeets plant response rating,sugar beet; [2],0
same,Sugarbeets plant response rating (0 to 10 scale),sugar beet; [3],0
same,Sugarbeets plant response rating,sugar beet; [7],0
same,Sugarbeets plant response rating,sugar beet; [5],0
same,Sugarbeets plant response rating,sugar beet; [6],0
same,"Plant response rating (0 to 10; 0 is no effect, 10 is complete control), Sugarbeets","sugar beet; Rate 250 g/ha, Postemergence",0
same,Blackgrass plant response rating,blackgrass; [1],0
same,Blackgrass plant response rating,blackgrass; [2],0
same,Blackgrass plant response rating (0 to 10 scale),blackgrass; [3],5
same,Blackgrass plant response rating,blackgrass; [7],7
same,Blackgrass plant response rating,blackgrass; [4],0
same,Blackgrass plant response rating,blackgrass; [5],0
same,Blackgrass plant response rating,blackgrass; [6],0
same,"Plant response rating (0 to 10; 0 is no effect, 10 is complete control), Blackgrass","blackgrass; Rate 250 g/ha, Postemergence",0
same,Redroot pigweed plant response rating,pigweed; [1],0
same,Redroot pigweed plant response rating,pigweed; [2],0
same,Redroot pigweed plant response rating (0 to 10 scale),pigweed; [3],0
same,Redroot pigweed plant response rating,pigweed; [7],0
same,Redroot pigweed plant response rating,pigweed; [4],0
same,Redroot pigweed plant response rating,pigweed; [5],0
same,Redroot pigweed plant response rating,pigweed; [6],0
same,"Plant response rating (0 to 10; 0 is no effect, 10 is complete control), Redroot pigweed","pigweed; Rate 250 g/ha, Postemergence",0
same,Velvetleaf plant response rating,velvetleaf; [1],0
same,Velvetleaf plant response rating,velvetleaf; [2],0
same,Velvetleaf plant response rating,velvetleaf; [7],0
same,Velvetleaf plant response rating,velvetleaf; [5],0
same,Velvetleaf plant response rating,velvetleaf; [6],0
same,"Plant response rating (0 to 10; 0 is no effect, 10 is complete control), Velvetleaf","velvetleaf; Rate 250 g/ha, Postemergence",1
same,Ducksalad plant response rating,duck salad; [8],0
same,Ducksalad plant response rating,duck salad; [9],0
same,Ducksalad plant response rating,duck salad; [10],0
same,Ducksalad plant response rating,duck salad; [11],0
same,Morningglory plant response rating,morningglory; [1],0
same,Morningglory plant response rating,morningglory; [2],0
same,Morningglory plant response rating (0 to 10 scale),morningglory; [3],0
same,Morningglory plant response rating,morningglory; [7],0
same,Morningglory plant response rating,morningglory; [4],0
same,Morningglory plant response rating,morningglory; [5],0
same,Morningglory plant response rating,morningglory; [6],0
same,"Plant response rating (0 to 10; 0 is no effect, 10 is complete control), Morningglory","morningglory; Rate 250 g/ha, Postemergence",2
same,Giant foxtail plant response rating,giant foxtail; [1],0
same,Giant foxtail plant response rating,giant foxtail; [2],0
same,Giant foxtail plant response rating (0 to 10 scale),giant foxtail; [3],4
same,Giant foxtail plant response rating,giant foxtail; [7],6
same,Giant foxtail plant response rating,giant foxtail; [4],0
same,Giant foxtail plant response rating,giant foxtail; [5],0
same,Giant foxtail plant response rating,giant foxtail; [6],0
same,"Plant response rating (0 to 10; 0 is no effect, 10 is complete control), Giant foxtail","giant foxtail; Rate 250 g/ha, Postemergence",0
same,Crabgrass plant response rating,crabgrass; [1],0
same,Crabgrass plant response rating,crabgrass; [2],0
same,Crabgrass plant response rating (0 to 10 scale),crabgrass; [3],2
same,Crabgrass plant response rating,crabgrass; [7],6
same,Crabgrass plant response rating,crabgrass; [4],0
same,Crabgrass plant response rating,crabgrass; [5],0
same,Crabgrass plant response rating,crabgrass; [6],1
same,"Plant response rating (0 to 10; 0 is no effect, 10 is complete control), Crabgrass","crabgrass; Rate 250 g/ha, Postemergence",2
same,Rape plant response rating,rape; [1],0
same,Rape plant response rating,rape; [2],0
same,Rape plant response rating (0 to 10 scale),rape; [3],0
same,Rape plant response rating,rape; [7],0
same,Rape plant response rating,rape; [4],0
same,Rape plant response rating,rape; [5],0
same,Rape plant response rating,rape; [6],0
same,"Plant response rating (0 to 10; 0 is no effect, 10 is complete control), Rape","rape; Rate 250 g/ha, Postemergence",0
same,Corn plant response rating,corn; [1],0
same,Corn plant response rating,corn; [2],0
same,Corn plant response rating (0 to 10 scale),corn; [3],0
same,Corn plant response rating,corn; [7],0
same,Corn plant response rating,corn; [4],0
same,Corn plant response rating,corn; [5],0
same,Corn plant response rating,corn; [6],0
same,"Plant response rating (0 to 10; 0 is no effect, 10 is complete control), Corn","corn; Rate 250 g/ha, Postemergence",0
same,Wheat plant response rating,wheat; [1],0
same,Wheat plant response rating,wheat; [2],0
same,Wheat plant response rating,wheat; [7],0
same,Wheat plant response rating,wheat; [5],0
same,Wheat plant response rating,wheat; [6],0
same,"Plant response rating (0 to 10; 0 is no effect, 10 is complete control), Wheat","wheat; Rate 250 g/ha, Postemergence",0
same,Soybean plant response rating,soybean; [1],0
same,Soybean plant response rating,soybean; [2],0
same,Soybean plant response rating (0 to 10 scale),soybean; [3],0
same,Soybean plant response rating,soybean; [7],0
same,Soybean plant response rating,soybean; [5],2
same,Soybean plant response rating,soybean; [6],2
same,"Plant response rating (0 to 10; 0 is no effect, 10 is complete control), Soybean","soybean; Rate 250 g/ha, Postemergence",2
same,S. Flatsedge plant response rating,smallflower flatsedge; [8],0
same,S. Flatsedge plant response rating,smallflower flatsedge; [9],0
same,S. Flatsedge plant response rating,smallflower flatsedge; [10],0
same,S. Flatsedge plant response rating,smallflower flatsedge; [11],0
